Our source for the IC50 values is patent US7803399B2, “Delivery system for nucleic acids” (The Scripps Research Institute, priority 2001, dated 2010).

One may read the IC50 as the midpoint of a concentration-inhibition curve.

Molecules are shown by their SMILES. Read-outs that look alike come from different tables or passages of the source.

For the assay, the system named is αvβ3 positive M21 Melanoma cells. Kind of assay: Cell adhesion inhibition assay on vitronectin coated plates. The note with it: Homo sapiens. Format: cell-based.

Description: Cell adhesion inhibition study was done on plates coated with vitronectin using human melonoma cell line M21. […] After about 1 hour incubation, the wells were washed, and the cells that adhered were stained with a solution of crystal violet and the optical density (OD) at about 590 nm was measured. The OD measured was proportional to the number of cells bound to the vitronectin plate and was plotted against the concentration of component 10 on the surface of the NPs in different formulations to calculate the IC50.
FIG. 8 schematically depicts the cell adhesion assay wherein M21 human melanoma cells, which express αvβ3, were mixed with liposomes covalently conjugated to an integrin antagonist (ligand) or to ligand alone. The cells were then placed on vitronectin plates, washed and stained. The number of bound cells was then counted using a plate counter.

With `NCCS(=O)(=O)N[C@@H](CNC(=O)c1ccc(OCCNC2=NCCCN2)cc1)C(=O)O` [Liposome 10, 4-[2-(3,4,5,6-Tetrahydropyrimidin-2-ylamino)ethyloxy]benzoyl-2-(S)-aminoethylsulfonamido-β-alanine], the IC50 came to 500 µM (FIG. 9, M21 cells on vitronectin, read-out: IC50 cell adhesion (FIG. 9), antagonist alone) and 64 µM (M21 cells on vitronectin coated plates, monomeric ligand, read-out: IC50 for inhibition of cell adhesion, free ligand).
